Converted amounts (≈) assume the structure as drawn. Where two headings read alike, the source gives them in different places.
Columns and labels:
in vivo = conditions: mouse, po, NMRI mice, 7 days, "higher than" = highest dose administered without any death
Experimental: The acute toxicity was determined on NMRI strain mice of both sexes weighing 20 to 25 g each by using 6 animals for each dose. The compounds to be tested were administered perorally in a volume of 20 ml/kg, the highest dose applied was 1000 mg/kg. After the administration the animals were kept under usual laboratory conditions for 7 days.
The data given as "higher than" a certain value mean the highest dose administered without noting any death of animals.

[1] = system: gastric mucosa lesions induced by absolute ethanol; experiment: Gastroprotective activity, test with absolute ethanol (gastric mucosa erosions); format: in vivo, rat; conditions: for gastroprotective activity (in words): test with absolute ethanol; for Relative activity related to the inhibition of the free acid: ED50 of gastric acid inhibition (Shay) related to ED50 of inhibition of gastric erosion; for ED50: po
Experimental: (§1) Rats of both sexes weighing 200 to 250 g, each previously starved for 24 hours, were used in this experiment. The lesions of gastric mucosa were induced by the oral administration of absolute ethanol in a dose of 1 ml/animal. After one hour following the administration, the animals were killed by an overdose of ether, the stomach was excised and the alterations of gastric mucosa were examined. The lengths of the erosions were measured and summarized (expressed in mm) for each stomach to obtain the erosion index by calculating the average value of the group. The inhibition was calculated in percentage by comparing the value of the group treated with ethanol to that of the control group treated only with the vehicle. Various doses of the compounds to be tested were administered, perorally, in a volume of 5 ml/kg using a pretreatment time of 60 minutes. Eight rats were used for each dose. /A. Robert, Gastroenterology 77, 761-767 (1979)/.
^x Relative activity = ED50 value of the gastric acid inhibition
related to the ED50 value of the inhibition of the gastric erosion.

[2] = system: gastric erosions induced by ethanol containing hydrochloric acid; experiment: Test with ethanol containing hydrochloric acid (gastric erosions); format: in vivo, rat; conditions: for Inhibition of the erosion index, relative activity: ED50 of cetraxate divided by ED50 of compound tested; for ED50: po, rat, p.o., HCl/absolute ethanol 1 to 50; for Inhibition of the erosion frequency, relative activity: related to cetraxate
Experimental: as §1
The principle of the method consists in that, simultaneously with the administration of absolute ethanol, hydrochloric acid is introduced to the stomach. Thus, the influence on systemic gastric acid inhibition action can be eliminated by the presence of the exogenous acid.
The reagent used in this test was a mixture of concentrated aqueous hydrochloric acid and absolute ethanol in a mass ratio of 1 to 50 in accordance with the dilution ratio used by Yamazaki et al., see Japan J. Pharmacol., 55, 415-424 (1991). Otherwise, the experiment was performed as described under test 2.1., however, in addition to the erosion index calculated from the lengths of the erosions in mm, the ratio of occurence of animals showing at least one gastric erosion within a test group, i.e. the erosion frequency, was also evaluated.

Helicobacter pylori = experiment: Antibacterial effect on Helicobacter pylori (MIC, blood agar); format: cell-based; conditions: Helicobacter pylori, 72 h
Experimental: Helicobacter pylori strains used in these experiments were obtained from the biopsial samples of the stomachs of patients suffering from ulcerative diseases of the gastrointestinal system. From the pure culture of isolates a thick suspension was prepared with cysteine-inositol solution suitable for lyophilisation, and the suspension obtained was maintained in cold-resistant plastic ampoules in a deep-freezing chamber at a temperature of about -196 ° C. For the determination of the inhibitory effect of the compounds tested on Helicobacter pylori, blood agar containing 10 mg/liter of vancomycin and 25 mg/liter of amphotericin B was used /C. A. M. McNulty and I. C. Dent: Susceptibility of clinical isolates of Campylobacter pylori to twenty one antimicrobial agents. Book of Abstracts, 4th European Congress of Clinical Microbiology, Nice (1989)/.
The plates containing the strains were cultivated at 37° C. for 72 hours under a gaseous atmosphere containing 10 per cent of carbon dioxide and 5 per cent of oxygen /D. M. Jones et al., J. Clin. Pathol., 37, 1002 (1984)/.
The culture media were inoculated by diluting the broth culture of the strains grown overnight or with a suspension prepared from a culture obtained on a solid medium. About 10^5 of germs were applied to the surface of each plate.
A series of dilution were prepared from the compound to be-tested. The MIC (minimal inhibiting concentration) value of the compounds tested was considered to be the lowest concentration inhibiting the growth of the test organism completely.

[3] = rat, 60 min pretreatment, absolute ethanol 1 ml/animal, erosion index
[4] = erosion frequency, read-out: Inhibition of the erosion frequency, ED50 p.o.
[5] = erosion index, read-out: Inhibition of the erosion index, ED50 p.o.

| Compound | LD50 at 168 h (in vivo) [mg/kg] | gastroprotective activity (in words) [1] | Relative activity related to the inhibition of the free acid [1] | ED50 [1, 3] [mg/kg] | Inhibition of the erosion index, relative activity ([2]; erosion index) | ED50 [2, 4] [mg/kg] | ED50 [2, 5] [mg/kg] | Inhibition of the erosion frequency, relative activity ([2]; erosion frequency) | MIC (Helicobacter pylori; strain 867/90) [µg/mL] | MIC (Helicobacter pylori; strain 1596) [µg/mL] | MIC (Helicobacter pylori; strain 3842) [µg/mL] | MIC (Helicobacter pylori; strain 6656) [µg/mL] | MIC (Helicobacter pylori; strain 6709) [µg/mL] | Gastroprotective activity: test with absolute ethanol, ED50 p.o. ([1]; rat, p.o., 60 min pretreatment, absolute ethanol 1 ml/animal, erosion index) [mg/kg] |
| --- | --- | --- | --- | --- | --- | --- | --- | --- | --- | --- | --- | --- | --- | --- |
| COc1ccc2nc([S+]([O-])Cc3ncc(C)c(OC)c3C)[nH]c2c1 (centres unmarked) [omeprazole, 5-methoxy-2-[[(4-methoxy-3,5-dimethyl-2-pyridyl)methyl]sulfinyl]benzimidazole, reference compound] | > 4000 | low gastroprotective action in a rather high dose | – | – | – | – | – | – | – | – | – | – | – | – |
| CCCN(CCC)CC(O)CO/N=C1\CCCC\C1=C/c1ccc(Cl)c(Cl)c1 (racemic) [Compound B, (R,S)-2-(E)-(3,4-dichlorophenylmethylene)-1-(E)-[(3-dipropylamino-2-hydroxypropoxy)imino]cyclohexane] | > 1000 | – | 12.5 | 12.6 | 1.7 | 20.1 | 12.7 | 6.4 | – | – | – | – | – | – |
| CN(CC(O)CO/N=C1\CCCC\C1=C/c1ccc(Cl)cc1)C1CCCCC1 (racemic) [Compound D, (R,S)-2-(E)-(4-chlorophenylmethylene)-1-(E)-[3'-(N-methyl-N-cyclohexylamino)-2'-hydroxypropoxyimino]cyclohexane] | > 1000 | – | 32.3 | 2.6 | 4.2 | 8.3 | 5.2 | 22.8 | 15.6 (≈ 38.5 µM) | 15.6 (≈ 38.5 µM) | 15.6 (≈ 38.5 µM) | 15.6 (≈ 38.5 µM) | 15.6 (≈ 38.5 µM) | – |
| CN(C)CC(O)CO/N=C1\CCCC\C1=C/c1ccc(Cl)cc1 (racemic) [Compound G, (R,S)-2-(E)-(4-chlorophenylmethylene)-1-(E)-[(3-dimethylamino-2-hydroxypropoxy)imino]cyclohexane] | – | – | 60-125 | – | – | – | 15.8 | 3-6 | 31.2 (≈ 92.6 µM) | 125 (≈ 371 µM) | 62.5 (≈ 186 µM) | 31.2 (≈ 92.6 µM) | 125 (≈ 371 µM) | – |
| CCCCNCC(O)CO/N=C1\CCCC\C1=C/c1ccc(Cl)c(Cl)c1 (racemic) [Compound A, (R,S)-2-(E)-(3,4-dichlorophenylmethylene)-1-(E)-[(3-butylamino-2-hydroxypropoxy)imino]cyclohexane] | > 1000 | – | 60.5 | 2 | 3.1 | 18.8 | 7.1 | 10.1 | – | – | – | – | – | – |
| OC(CNC1CCCCC1)CO/N=C1\CCCC\C1=C/c1ccc(Cl)cc1 (racemic) [Compound E, (R,S)-2-(E)-(4-chlorophenylmethylene)-1-(E)-[(3-cyclohexylamino-2-hydroxypropoxy)imino]cyclohexane] | > 1000 | – | – | – | – | – | 10.3 | 3-6 | – | – | – | – | – | – |
| COc1ccccc1/C=C1\CCCC\C1=N/OCC(O)CN1CCN(c2ccccc2OC)CC1 (racemic) [Compound H, (R,S)-2-(E)-(2-methoxyphenylmethylene)-1-(E)-{3-[4-(2-methoxyphenyl)-1-piperazinyl]-2-hydroxypropoxyimino}cyclohexane] | – | – | higher than 20.0 | 9.5 | 0.4-0.7 | > 60 | 30 to 60 | < 3 | – | – | – | – | – | – |
| CCCCCCNCC(O)CO/N=C1\CCCC\C1=C/c1ccccc1 (racemic) [Compound C, (R,S)-2-(E)-(phenylmethylene)-1-(E)-[(3-hexylamino-2-hydroxypropoxy)imino]cyclohexane] | > 1000 | – | – | – | – | – | 11.5 | – | 3.9 (≈ 10.9 µM) | 7.8 (≈ 21.8 µM) | 3.9 (≈ 10.9 µM) | 3.9 (≈ 10.9 µM) | 3.9 (≈ 10.9 µM) | – |
| CCCCCCNCC(O)CO/N=C1\CCCC\C1=C/c1ccc(Cl)cc1 (racemic) [Compound F, (R,S)-2-(E)-(4-chlorophenylmethylene)-1-(E)-[(3-hexylamino-2-hydroxypropoxy)imino]-cyclohexane] | > 1000 | – | – | – | – | – | 7.2 | – | – | – | – | – | – | – |
| CN1CCN(CC(=O)N2c3ccccc3C(=O)Nc3cccnc32)CC1 [pirenzepine, reference compound] | – | low gastroprotective action in a rather high dose | – | – | – | – | – | – | – | – | – | – | – | – |
| CNC(=NC#N)NCCSCc1nc[nH]c1C [cimetidine, 2-cyano-1-methyl-3-[2-[[(5-methyl-4-imidazolyl)-methyl]thio]ethyl]guanidine, reference compound] | – | low gastroprotective action in a rather high dose | – | – | – | – | – | – | – | – | – | – | – | – |
| beta-D-fructofuranosyl alpha-D-glucopyranoside hydrogen sulfate basic aluminium salt [sucralfate, reference compound] | – | nearly identical activity | – | – | – | – | – | – | – | – | – | – | – | 69.0 |
| C=CCNCC(O)CO/N=C1\CCCC\C1=C/c1ccc(Cl)cc1 (racemic) [Compound I, (R,S)-2-(E)-(4-chlorophenylmethylene)-1-(E)-[(3-propenylamino-2-hydroxypropoxy)imino]cyclohexane] | – | – | higher than 10.0 | 8.4 | 2.6 | 39.2 | 8.6 | 4.8 | – | – | – | – | – | – |
| CN(C)CCCNCC(O)CO/N=C1\CCCC\C1=C/c1ccccc1 (racemic) [Compound M, (R,S)-2-(E)-(phenylmethylene)-1-(E)-{[3-(3-dimethylamino-1-propylamino)-2-hydroxypropoxy]imino}cyclohexane] | – | – | about 6.7 | 29.9 | 1.3 | 30 to 60 | 17.5 | 3-6 | – | – | – | – | – | – |
| CC(C)NCC(O)CO/N=C1\CCCC\C1=C/c1ccc(Br)cc1 (racemic) [Compound K] | – | – | about 17.9 | 6.7 | 1.9 | 15 to 30 | 11.4 | 6-12 | – | – | – | – | – | – |
| CCCCNCC(O)CO/N=C1\CCCC\C1=C/c1ccc(Cl)cc1 (racemic) [Compound L, (R,S)-2-(E)-(4-chlorophenylmethylene)-1-(E)-[(3-butylamino-2-hydroxypropoxy)imino]cyclohexane] | 1300 | – | 18.3 | 7.6 | 2.2 | 30 to 60 | 9.8 | 3-6 | – | – | – | – | – | – |
| CC(C)N(CC(O)CO/N=C1\CCCC\C1=C/c1ccc(Cl)cc1)C(C)C (racemic) [Compound J, (R,S)-2-(E)-(4-chlorophenylmethylene)-1-(E)-[(3-diisopropylamino-2-hydroxypropoxy)imino]cyclohexane] | – | – | about 25.0 | 7 | 3.7 | 19.1 | 5.9 | 9.9 | – | – | – | – | – | – |

Reference: patent publication US5597822A, “Pharmaceutical compositions for the prevention and/or treatment a gastrointestinal diseases” (Egis Pharmaceutical, priority 1993, dated 1997)
